Reference: patent US20210009673A1, “METHODS FOR REGULATING BREAST CANCERS” (priority 2018, published 2021)
No end group written: not given here.

Legend:
[1] = tested on: MMTV-PyMT mouse breast cancers; assay: breast cancer progression in MMTV-PyMT-PTN 1-40 bi-transgenic mice; assay type: in vivo
Description: The MMTV LTP promoter and human cDNA encoding PTN 1-40 (residue −32 to residue 40) was amplified using PCR from pcDNA3.1-Ptn (constructed by our laboratory). After restriction enzyme digestion, MMTV LTR and Ptn 1-40 cDNA were inserted into EcoR V, Not I and EcoR I site of pIRES-EGFP (BD clontech). The sequence of the final transgene construction (MMTV-PTN-IRES-EGFP) was verified by nucleotide sequencing. The transgene construction was freed of the bacterial sequences by digestion with EcoR V and Xho I, producing a 4.0-kb linear DNA fragment. The 4.0-kb linear DNA that was injected into the fertilized eggs of FVB mice consisted of the MMTV-LTR, PTN 1-40 cDNA, IRES (internal ribosomal entry site), EGFP cDNA, SV40 poly-adenylation sequences. Tail DNA from weaning mice derived from the transgene-injected eggs was analyzed by PCR. The mice were housed in animal facility of The Scripps Research Institute and were maintained according to NIH guidelines for the Care and Use of Laboratory Animals.
FVB/N-Tg(MMTV-PyVT)634Mul/J transgenic mice were purchased from Jackson laboratory. They develop spontaneous metastatic mammary carcinomas and have been described in before. […] Transgenic animals were genotyped using PCR analysis of genomic DNA obtained from tails. When possible, litter mates with both genotypes were used in the same experiment.
Mice were examined daily seeking mammary tumors by eye examination and finger palpation after 5 weeks of age. The tumors fully formed on the mammary glands were excised and weighed in 12-14 weeks old mice depending on the tumor size in bi-transgenic mice. Tumor length (L) and width (W) were measured 3 times a week using calipers. Tumor volume was estimated using the formula (L×W2)/2. Total wet tumor weight was weighed by scale when the tumors were excised from sacrificed mice.
The tumor tissue excised from euthanized animals was fixed in 10% buffered formalin and embedded in paraffin. The specimens were sectioned, stained with H&E, and Masson trichrome stain for collagen fibers.
Tumor tissue was fixed by 4% paraformaldehyde in phosphate-buffered saline (PBS). After PBS rinse, the tissues were cryoprotected with 30% sucrose in PBS at […] overnight, then infiltrated with a mixture of 1 parts 30% sucrose phosphate buffer to 1 part Histo Prep™ Frozen tissue embedding media (Fisher Scientific) for ½ hour at room temperature before infiltration with 100% Histo Prep™ and freezing. Cryosections ([…]) were cut and immunohistochemistry was performed using rat anti-mouse CD31 (PECAM-1. BD Pharmingen) antibodies. IMD (number of vessels/mm2) was obtained by counting CD31+ vessels in 10 random fields at ×200 magnification.
Reverse transcription was done using […] total RNA in the presence of 50 ng random hexamers using Ominscipt kit (Qiagen) following manufacturer's recommendations. Real time PCR was done using ICycler (BIORAD). The amplification conditions were: one cycle of 95° C.°, 3 min followed by 40 cycles of 95 C°, 30 sec and 60 C°, 15 sec. GAPDH was used as internal control. The fold changes relative to GAPDH was calculated using the formula: Fold Change=2 L (Ct Target1-CtTarget2)/2 L (Ct GAPDH1-CtGAPDH2) Where: Ct is the threshold of cycle number. Target is the gene measured. Number 1 and 2 represent different samples.

[2] = tested on: MDA-MB-231 cell xenograft; details: ectopic expression; Zhang, Zhong et al. 1997; cited from earlier work
ALK = ALK activation in MDA-MB-231 cells stably transfected with dominant negative PTN (anti-ALK phosphotyrosine 1586/1604 Western blot); assay type: cell-based, human; details: cells expressing dominant negative PTN vs empty vector
Procedure: FIG. 18: FIG. 18 illustrates: that a dominant negative PTN blocks ALK activation. MDA-MB-231 cells were transfected with an empty vector or cDNA encoding a dominant negative PTN 1-40. Cell lysates were prepared and analyzed in Western blots probed with anti-phospho-ALK tyrosine 1586/1604 (left two lanes) or separately with anti-ALK antibodies (right two lanes). Arrows point full length ALK (200 kDa) and activated ALK phosphotyrosines 1586/1604.
To test whether ALK is activated through the PTN/RPTPβ/ζ signaling pathway in MDA-MB-231 cells, lysates from MDA-MB-231 cells, stably transfected with dominant negative PTN, were first analyzed in Western blots probed with anti-ALK and with anti-ALK phosphotyrosine 1586/1604 antibodies specific for activated ALK (Bai, Dieter et al. 1998, Mol Cell Biol 18(12): 6951-61). Anti-ALK phosphotyrosines 1586/1604 immunoreactive proteins were only identified in lysates from MDA-MB-231 empty vector cells, consistent with results above and supporting ALK is activated in cells with an activated PTN/RPTPβ/ζ signaling pathway.
The vector pcDNA3.1/PTN1-40 was constructed by inserting the cDNA fragment encoding residues −32 to 40 of human PTN protein into XbaI and BamHI of pcDNA3.1/myc-his/hygro vector (Invitrogen).

## dominant negative PTN: mutant PTN (residues 1-40) forming mixed disulfide linked heterodimers with wild-type PTN; expressed from cDNA or transgene (GKKEKPEKKVKKSDCGEWQWSVCVPTSGDCGLGTREGTRT; also: forms mixed disulfide linked heterodimers with wild-type PTN; UniProt P21246 33-72, looked up, fragment)
[1]; 13-week mice, 2% in MMTV-PyMT, p=0.017
  percentage area of adenoma/MIN: 12%
[1]; 13-week mice, 20% in MMTV-PyMT, p=0.045
  percentage area occupied by early carcinoma: 41%
[1]; 13-week mice, 78% in MMTV-PyMT, P=0.024
  percentage area occupied by later carcinoma: about 45%
[1]; MMTV-PyMT-PTN 1-40 bi-transgenic mouse breast cancers
  foci of scirrhous carcinoma: not seen
[1]; about 30 in MMTV-PyMT, P<0.05
  average intratumor microvessel density (IMD): about 18 blood vessels/mm2
[1]; compared with MMTV-PyMT mice
  tropoelastin and protocollagen mRNA levels (RT-PCR): not statistically different
[1]; compared with MMTV-PyMT-Ptn and MMTV-PyMT mice
  activated fibroblasts in breast cancers: marked reduction
[2]
  MDA-MB-231 cell xenograft growth in nude mice: prevented MDA-MB-231 cell xenograft growth
ALK
  anti-ALK phosphotyrosines 1586/1604 immunoreactive proteins: essentially non-identifiable
